Experimental data reported in BindingDB's records for doi:10.1021/jm9004225 (National Institute On Drug Abuse and The National Institute …, 2009).

Experiment: Displacement of [3H]U69593 from human recombinant kappa opioid receptor expressed in CHO cells

Structure (SMILES): CC[C@]12CCN(C)C[C@H]1Oc1ccc(O)cc12 [4aR,9aS-(+)-cis-4a-Ethyl-2-methyl-1,2,3,4,4a,9a-hexahydrobenzofuro[2,3-c]pyridin-6-ol]
- Ki: > 10 µM
